In patent US11420956B2, “Ureas having Androgen Receptor degradation activity and uses thereof” (ACCUTAR BIOTECHNOLOGY INC., priority 2019, dated 2022):

Molecular target: T1, androgen receptor (AR) (Homo sapiens, UniProt P10275, T878A)
T1 construct: endogenous in cells; host or cells: LNCAP
T1 sequence (P10275 1-920 T878A): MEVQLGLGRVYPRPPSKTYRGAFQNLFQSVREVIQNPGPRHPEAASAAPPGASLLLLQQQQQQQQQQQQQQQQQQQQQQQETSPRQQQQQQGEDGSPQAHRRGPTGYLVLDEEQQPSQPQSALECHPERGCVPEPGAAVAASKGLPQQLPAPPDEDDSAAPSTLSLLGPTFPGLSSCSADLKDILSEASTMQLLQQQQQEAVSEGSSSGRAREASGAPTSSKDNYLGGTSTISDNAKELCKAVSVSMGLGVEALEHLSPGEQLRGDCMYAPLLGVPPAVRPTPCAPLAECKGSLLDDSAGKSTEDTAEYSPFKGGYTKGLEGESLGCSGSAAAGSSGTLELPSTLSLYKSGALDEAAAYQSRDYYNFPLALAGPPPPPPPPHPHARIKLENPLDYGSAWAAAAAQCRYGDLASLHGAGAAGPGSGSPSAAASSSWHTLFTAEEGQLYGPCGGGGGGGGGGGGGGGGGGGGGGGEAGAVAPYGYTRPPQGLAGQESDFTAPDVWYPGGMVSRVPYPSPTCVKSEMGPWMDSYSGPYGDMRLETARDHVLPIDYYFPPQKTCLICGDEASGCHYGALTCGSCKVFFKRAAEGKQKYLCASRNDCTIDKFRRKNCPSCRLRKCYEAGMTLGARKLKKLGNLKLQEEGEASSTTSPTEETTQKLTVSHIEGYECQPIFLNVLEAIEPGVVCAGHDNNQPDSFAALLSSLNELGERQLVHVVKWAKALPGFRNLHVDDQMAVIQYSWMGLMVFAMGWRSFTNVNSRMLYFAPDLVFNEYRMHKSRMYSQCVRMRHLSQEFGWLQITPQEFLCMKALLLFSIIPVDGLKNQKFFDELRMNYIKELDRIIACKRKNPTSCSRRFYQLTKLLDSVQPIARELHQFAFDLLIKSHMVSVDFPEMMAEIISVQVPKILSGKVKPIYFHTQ
Experiment: AR degradation in LNCAP cells (Western blot)
Format: cell-based
Details: 24 hours after administration
Procedure: LNCAP, VCAP and 22Rv1 cells were plated in 24-well plates at 1.5×10E5 cells/well in the RPMI growth medium containing 10% FBS and 1% Penicillin Streptomycin, and then incubated at 37° C. overnight. The following day, the test compound was administered to the cells by using 1000× compound stock solution prepared in DMSO at various concentrations. After administration of the compound, the cells were then incubated at 37° C. for 24 hours. Upon completion, the cells were washed with PBS and protein was collected in Laemmli sample buffer (1×; VWR International). Proteins in cell lysate were separated by SDS-PAGE and transferred to Odyssey nitrocellulose membranes (Licor) with iblot® dry blotting transfer system (ThermoFisher). Nonspecific binding was blocked by incubating membranes with Intercept Blocking Buffer (Licor) for 1 hour at room temperature with gentle shaking. The membranes were then incubated overnight at 4° C. with Primary antibodies rabbit anti-AR (1:1,000, Cell Signaling, 5153) and mouse anti-GAPDH (1:5,000, Santa Cruz Biotechnology, sc-47724) diluted in Intercept Blocking Buffer containing 0.1% Tween 20. After washing 3 times with TBS-T, the membranes were incubated with IRDye® […] goat anti-mouse IgG (1:20,000, Licor) or IRDye® […] goat anti-rabbit IgG (1:20,000, Licor) for 1 hour. After TBS-T washes, membranes were rinsed in TBS and scanned on Odyssey® CLx Imaging System (Licor). The bands were quantified using Image Studio™ Software (Licor).
Tables 5 and 6 summarize the androgen receptor (AR) degradative activity of exemplary compounds in LNCAP, VCAP and 22Rv1 cell lines 24 hours after administration. DC50: compound concentration needed for 50% target protein degradation.

| SMILES | DC50 [nM] |
| --- | --- |
| C[C@@H]1CN(c2ccc(C#N)c(Cl)c2)[C@@H](C)CN1C(=O)Nc1ccc(N2CCC(CN3CCN(c4ccc5c(c4)CN([C@H]4CCC(=O)NC4=O)C5=O)CC3)CC2)c(F)c1 [Compound 1-46, (2R,5S)-4-(3-chloro-4-cyanophenyl)-N-(4-(4-((4-(2-((S)-2,6-dioxopiperidin-3-yl)-1-oxoisoindolin-5-yl)piperazin-1-yl)methyl)piperidin-1-yl)-3-fluorophenyl)-2,5-dimethylpiperazine-1-carboxamide] | ≤ 10 |
| C[C@@H]1CN(c2ccc(C#N)c(Cl)c2)[C@@H](C)CN1C(=O)Nc1ccc(N2CCC(CN3CCN(c4ccc5c(c4)C(=O)N(C4CCC(=O)NC4=O)C5=O)CC3)CC2)c(F)c1 (stereo partly drawn) [Compound 1-47, (2R,5S)-4-(3-chloro-4-cyanophenyl)-N-(4-(4-((4-(2-(2,6-dioxopiperidin-3-yl)-1,3-dioxoisoindolin-5-yl)piperazin-1-yl)methyl)piperidin-1-yl)-3-fluorophenyl)-2,5-dimethylpiperazine-1-carboxamide] | ≤ 10 |
| C[C@@H]1CN(c2ccc(C#N)c(C(F)(F)F)c2)[C@@H](C)CN1C(=O)Nc1cnc(N2CCC(CN3CCN(c4ccc5c(c4)CN([C@H]4CCC(=O)NC4=O)C5=O)CC3)CC2)nc1 [Compound 1-49, (2R,5S)-4-(4-cyano-3-(trifluoromethyl)phenyl)-N-(2-(4-((4-(2-((S)-2,6-dioxopiperidin-3-yl)-1-oxoisoindolin-5-yl)piperazin-1-yl)methyl)piperidin-1-yl)pyrimidin-5-yl)-2,5-dimethylpiperazine-1-carboxamide] | ≤ 10 |
| C[C@@H]1CN(c2ccc(C#N)c(C(F)(F)F)c2)[C@@H](C)CN1C(=O)Nc1ccc(N2CCC(CN3CCN(c4ccc5c(c4)CN([C@H]4CCC(=O)NC4=O)C5=O)CC3)CC2)c(F)c1 [Compound 1-50, (2R,5S)-4-(4-cyano-3-(trifluoromethyl)phenyl)-N-(4-(4-((4-(2-((S)-2,6-dioxopiperidin-3-yl)-1-oxoisoindolin-5-yl)piperazin-1-yl)methyl)piperidin-1-yl)-3-fluorophenyl)-2,5-dimethylpiperazine-1-carboxamide] | ≤ 10 |
| C[C@@H]1CN(c2ccc(C#N)c(Cl)c2)[C@@H](C)CN1C(=O)Nc1cnc(N2CCC(CN3CCN(c4ccc5c(c4)CN([C@H]4CCC(=O)NC4=O)C5=O)CC3)CC2)nc1 [Compound 1-51, (2R,5S)-4-(3-chloro-4-cyanophenyl)-N-(2-(4-((4-(2-((S)-2,6-dioxopiperidin-3-yl)-1-oxoisoindolin-5-yl)piperazin-1-yl)methyl)piperidin-1-yl)pyrimidin-5-yl)-2,5-dimethylpiperazine-1-carboxamide] | ≤ 10 |
| COc1cc(N2C[C@@H](C)N(C(=O)Nc3cnc(N4CCC(CN5CCN(c6ccc7c(c6)CN([C@H]6CCC(=O)NC6=O)C7=O)CC5)CC4)nc3)C[C@@H]2C)ccc1C#N [Compound 1-52, (2R,5S)-4-(4-cyano-3-methoxyphenyl)-N-(2-(4-((4-(2-((S)-2,6-dioxopiperidin-3-yl)-1-oxoisoindolin-5-yl)piperazin-1-yl)methyl)piperidin-1-yl)pyrimidin-5-yl)-2,5-dimethylpiperazine-1-carboxamide] | ≤ 10 |
| C[C@@H]1CN(c2ccc(C#N)c(Cl)c2)[C@@H](C)CN1C(=O)Nc1ccc(N2CCC(CN3CCN(c4cc5c(cc4F)C(=O)N([C@H]4CCC(=O)NC4=O)C5=O)CC3)CC2)nc1 [Compound 1-54, (2R,5S)-4-(3-chloro-4-cyanophenyl)-N-(6-(4-((4-(2-(2,6-dioxopiperidin-3-yl)-6-fluoro-1,3-dioxoisoindolin-5-yl)piperazin-1-yl)methyl)piperidin-1-yl)pyridin-3-yl)-2,5-dimethylpiperazine-1-carboxamide] | ≤ 10 |
| COc1cc(N2C[C@@H](C)N(C(=O)Nc3ccc(N4CCC(CN5CCN(c6cc7c(cc6F)C(=O)N([C@H]6CCC(=O)NC6=O)C7)CC5)CC4)c(F)c3)C[C@@H]2C)ccc1C#N [Compound 1-55, (2R,5S)-4-(4-cyano-3-methoxyphenyl)-N-(4-(4-((4-(2-((S)-2,6-dioxopiperidin-3-yl)-6-fluoro-1-oxoisoindolin-5-yl)piperazin-1-yl)methyl)piperidin-1-yl)-3-fluorophenyl)-2,5-dimethylpiperazine-1-carboxamide] | ≤ 10 |
| C[C@@H]1CN(c2ccc(C#N)c(Cl)c2)[C@@H](C)CN1C(=O)Nc1ccc(N2CCC(CN3CCN(c4cc5c(cc4F)C(=O)N([C@H]4CCC(=O)NC4=O)C5)CC3)CC2)c(F)c1 [Compound 1-56, (2R,5S)-4-(3-chloro-4-cyanophenyl)-N-(4-(4-((4-(2-((S)-2,6-dioxopiperidin-3-yl)-6-fluoro-1-oxoisoindolin-5-yl)piperazin-1-yl)methyl)piperidin-1-yl)-3-fluorophenyl)-2,5-dimethylpiperazine-1-carboxamide] | ≤ 10 |
| C[C@@H]1CN(c2ccc(C#N)c3ncccc23)[C@@H](C)CN1C(=O)Nc1cnc(N2CCC(CN3CCN(c4ccc5c(c4)C(=O)N(C4CCC(=O)NC4=O)C5=O)CC3)CC2)nc1 (stereo partly drawn) [Compound 2-8, (2R,5S)-4-(8-cyanoquinolin-5-yl)-N-(2-(4-((4-(2-(2,6-dioxopiperidin-3-yl)-1,3-dioxoisoindolin-5-yl)piperazin-1-yl)methyl)piperidin-1-yl)pyrimidin-5-yl)-2,5-dimethylpiperazine-1-carboxamide] | > 100 |
| C[C@@H]1CN(c2ccc(C#N)c3ncccc23)[C@@H](C)CN1C(=O)Nc1ccc(N2CCC(CN3CCN(c4ccc5c(c4)C(=O)N(C4CCC(=O)NC4=O)C5=O)CC3)CC2)nc1 (stereo partly drawn) [Compound 2-9, (2R,5S)-4-(8-cyanoquinolin-5-yl)-N-(6-(4-((4-(2-(2,6-dioxopiperidin-3-yl)-1,3-dioxoisoindolin-5-yl)piperazin-1-yl)methyl)piperidin-1-yl)pyridin-3-yl)-2,5-dimethylpiperazine-1-carboxamide] | > 100 |
| C[C@@H]1CN(c2ccc(C#N)c3ncccc23)[C@@H](C)CN1C(=O)Nc1cnc(N2CCC(CN3CCN(c4ccc5c(c4)CN([C@H]4CCC(=O)NC4=O)C5=O)CC3)CC2)nc1 [Compound 2-10, (2R,5S)-4-(8-cyanoquinolin-5-yl)-N-(2-(4-((4-(2-((S)-2,6-dioxopiperidin-3-yl)-1-oxoisoindolin-5-yl)piperazin-1-yl)methy)piperidin-1-yl)pyrimidin-5-yl)-2,5-dimethylpiperazine-1-carboxamide] | > 100 |
| C[C@@H]1CN(c2ccc(C#N)c3ncccc23)[C@@H](C)CN1C(=O)Nc1ccc(N2CCC(CN3CCN(c4ccc5c(c4)CN([C@H]4CCC(=O)NC4=O)C5=O)CC3)CC2)nc1 [Compound 2-11, (2R,5S)-4-(8-cyanoquinolin-5-yl)-N-(6-(4-((4-(2-((S)-2,6-dioxopiperidin-3-yl)-1-oxoisoindolin-5-yl)piperazin-1-yl)methyl)piperidin-1-yl)pyridin-3-yl)-2,5-dimethylpiperazine-1-carboxamide] | > 100 |
| C[C@@H]1CN(c2ccc(C#N)c3ncccc23)[C@@H](C)CN1C(=O)Nc1ccc(N2CCC(CN3CCN(c4ccc5c(c4)C(=O)N(C4CCC(=O)NC4=O)C5=O)CC3)CC2)c(F)c1 (stereo partly drawn) [Compound 2-12, (2R,5S)-4-(8-cyanoquinolin-5-yl)-N-(4-(4-((4-(2-(2,6-dioxopiperidin-3-yl)-1,3-dioxoisoindolin-5-yl)piperazin-1-yl)methyl)piperidin-1-yl)-3-fluorophenyl)-2,5-dimethylpiperazine-1-carboxamide] | > 100 |
